From publication PMC9456425, “Aminopeptidase N Inhibitors as Pointers for Overcoming Antitumor Treatment Resistance” (International Journal of Molecular Sciences, 2022) come the findings set out here.

In data set [1] the target is T1, APN (Microsomal Leucine aminopeptidase from porcine kidney EC 3.4.11.2) (Sus scrofa, UniProt P15145).
T1 construct: Microsomal Leucine aminopeptidase from porcine kidney EC 3.4.11.2, Type IV-S, ammonium sulfate suspension; purchased Sigma-Aldrich; host or cells: porcine kidney (tissue-derived, microsomal)
T1 sequence (P15145 1-963): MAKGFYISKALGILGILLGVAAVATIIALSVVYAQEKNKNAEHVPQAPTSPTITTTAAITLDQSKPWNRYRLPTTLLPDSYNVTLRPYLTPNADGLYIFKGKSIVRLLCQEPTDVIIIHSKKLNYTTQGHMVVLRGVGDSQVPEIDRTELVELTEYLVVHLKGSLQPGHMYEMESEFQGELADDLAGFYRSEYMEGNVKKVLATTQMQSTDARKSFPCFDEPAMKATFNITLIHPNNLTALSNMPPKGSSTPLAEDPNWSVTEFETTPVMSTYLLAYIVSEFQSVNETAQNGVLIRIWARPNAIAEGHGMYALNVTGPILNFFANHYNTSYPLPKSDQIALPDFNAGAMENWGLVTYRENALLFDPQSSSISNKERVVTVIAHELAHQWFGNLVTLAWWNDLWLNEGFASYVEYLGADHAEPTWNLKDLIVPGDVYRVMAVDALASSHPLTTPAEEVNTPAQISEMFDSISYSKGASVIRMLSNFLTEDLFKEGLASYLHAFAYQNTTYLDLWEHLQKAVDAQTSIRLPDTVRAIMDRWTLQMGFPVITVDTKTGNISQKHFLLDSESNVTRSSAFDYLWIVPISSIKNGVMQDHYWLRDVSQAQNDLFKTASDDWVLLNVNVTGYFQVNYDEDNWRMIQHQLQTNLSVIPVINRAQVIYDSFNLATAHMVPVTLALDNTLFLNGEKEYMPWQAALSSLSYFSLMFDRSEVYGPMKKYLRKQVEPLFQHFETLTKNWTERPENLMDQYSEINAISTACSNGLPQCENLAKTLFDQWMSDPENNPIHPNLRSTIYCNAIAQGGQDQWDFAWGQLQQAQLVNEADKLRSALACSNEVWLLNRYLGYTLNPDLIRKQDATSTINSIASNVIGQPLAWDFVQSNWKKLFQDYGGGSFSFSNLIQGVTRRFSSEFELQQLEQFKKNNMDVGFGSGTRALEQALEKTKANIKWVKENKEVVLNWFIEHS
Description: APN inhibitory activity, spectrophotometry with L-leucine-p-nitroanilide. Format: biochemical. Here is the method:
APN inhibitory activity was determined using a standardized spectrophotometry protocol using L-leucine-p-nitroanilide as a chromogenic substrate for APN. Measurements were performed in triplicate at 405 nm at a Cytation 3 well-plate reader.
In some compounds, solubility problems occurred, which complicated the inhibition activity determination. We overcame these either by the use of cosolvents or by an alternative HPLC approach. The details are summarized in the Supplementary Materials.
IC50 values against enzyme APN were determined using L-Leucine-p-nitroanilide (Sigma-Aldrich, Darmstadt, Germany) as the substrate and Microsomal Leucine aminopeptidase from porcine kidney EC 3.4.11.2, Type IV-S, ammonium sulfate suspension, 10–40 units/mg protein (Sigma-Aldrich, Darmstadt, Germany). The assay was performed by a Cytation 3 Cell Imaging Multi-Mode Reader (BioTek Instruments, Inc., Winooski, VT, USA) with appropriate Gen-5 software in 96-well plates. A 0.02 mol/L TRIS-HCl buffer solution at pH 7.5 was used as the assay buffer. All tested compounds were dissolved in TRIS-HCl buffer solution and compounds with poor solubility were dissolved in a small amount of DMSO or NMP used as a cosolvent. The assay mixture, which contained a variable amount of inhibitor solution (from 0 up to 80 μL), 10 μL of the enzyme solution, 5 μL of the substrate solution, and the assay buffer adjusted to 200 μL, was incubated at 37 °C for 40 min with short orbital shaking for 10 s. The hydrolysis of the substrate was monitored by the optical photometric method of absorbance in the visible and ultraviolet regions at a wavelength of 405 nm. The enzyme activity inhibitory rate was calculated from the measures of absorbance. The results of the 50% inhibitory activity of the enzyme (IC50) were determined through a regression analysis of the concentration/absorbance data by GraFit 5 software (Erithacus Software Ltd., East Grinstead, UK).

For the next data set, the system named is MCF-7 cells. The experiment in a line: WST-1 analysis of cell proliferation, MCF-7. The format is cell-based, human. The following applies: for Proliferation of control: 48 h. Here is the method:
(§1) The results are shown in Table 4, Figure 2, and the Supplementary Materials.
(§2) A human monocytic leukemia cell line (THP-1), human breast adenocarcinoma cells (MCF-7), and human prostate cancer (DU-145) cell line were obtained from ATCC. THP-1 and DU-145 cells were cultivated in an RPMI 1640 culture medium and MCF-7 cells were cultivated in a DMEM medium, both supplemented with the antibiotic solution (100 U/mL of penicillin, 100 µg/mL of streptomycin) and 10% FBS. Cells were maintained in a humidified incubator with 5% CO2 at 37 °C and were regularly tested for the presence of mycoplasma contamination.
(§3) THP-1, MCF-7, and DU-145 cells were seeded in 96-well plates. Adherent cell lines were allowed to attach to the wells for 24 h. Cells were then treated with various concentrations of tested compounds to reach the final concentrations ranging between 1 µM and 100 µM and were incubated for 48 h. Cell proliferation was determined using Cell Proliferation Reagent WST-1 (2-(4-iodophenyl)-3-(4-nitrophenyl)-5-(2,4-disulfophenyl)-2H-tetrazolium) (Roche Diagnostics, Mannheim, Germany), as previously described. WST-1 analysis was performed in three independent experiments, with each condition tested in triplicate. The IC50 values were determined using the nonlinear regression four-parameter logistic model using GraphPad Prism 5.00 software (GraphPad Software, San Diego, CA, USA). Statistical significance between the values was assessed by one-way analysis of variance (ANOVA) paired with Dunnett’s post hoc test using GraphPad Prism 5.00 software (GraphPad Software, San Diego, CA, USA) at levels of * p < 0.05, ** p < 0.01, and *** p < 0.001.
For orientation: Formazan colour is commonly taken as a measure of viable cells.

Another data set deals with THP-1 cells. The experiment in a line: WST-1 analysis of cell proliferation, THP-1. Format: cell-based, human. The following applies: for Proliferation of control: 48 h. Here is the method:
as §1, §2, §3

A further data set relates to DU-145 cells. The experiment in a line: WST-1 analysis of cell proliferation, DU-145. The format is cell-based, human. The conditions noted are these: for Proliferation of control: 48 h. Here is the method:
as §1, §2, §3

Setting [2] is: DMSO as a cosolvent, read-out: IC50 Experimental.
[3] abbreviates: logarithm of IC50 in µmol/L, read-out: Log IC50 Experimental (converted).
The mark [4] stands for this setting: TRIS-HCl buffer pH 7.5, 37 °C, 40 min, no cosolvent noted, read-out: IC50 Experimental.
Setting [5] is: NMP as a cosolvent, read-out: IC50 Experimental.

Where two headings read alike, the source gives them in different places.

Turning to `CCN(CC)CC(=O)Nc1ccc(C(C)=O)cc1` [14-2-1], the IC50 in data set [1] (setting [2]) and in data set [1] (setting [3]) was 366 µM in each case.
In the case of `CC(=O)c1ccc(NC(=O)CN2CCCCC2)cc1` [14-6-1], the IC50 (commonly the concentration at which inhibition is half-maximal) in data set [1] (setting [4]) was determined as 173 µM.
As for `CC(=O)c1ccc(NC(=O)CN2CCOCC2)cc1` [14-8-1], in data set [1] (setting [4]), the IC50 is 425 µM.
As to `CC(=O)c1ccc(NC(=O)CN2CCN(Cc3ccccc3)CC2)cc1` [14-10-1], the half-maximal inhibitory concentration (IC50) in data set [1] (setting [2]) came out at 427 µM.
As to `CC(=NNC(N)=S)c1ccccc1NC(=O)CN1CCCCC1` [22-6-1], the IC50 in data set [1] (setting [4]) is 778 µM.
Turning to `CC(=NNC(N)=S)c1ccccc1NC(=O)CN1CCCCCC1` [22-7-1], the IC50 in data set [1] (setting [4]) and in data set [1] (setting [3]) was 169 µM each time.
Consider `CCCN(CCC)CC(=O)Nc1ccc(C(C)=NNC(N)=S)cc1` [24-3-1], for which the IC50 in data set [1] (setting [4]) and in data set [1] (setting [3]) was 1270 µM throughout.
As for `CCCCN(CCCC)CC(=O)Nc1ccc(C(C)=NNC(N)=S)cc1` [24-4-1], the IC50 in data set [1] (setting [5]) and in data set [1] (setting [3]) was 1680 µM throughout.
Consider `CC(=NNC(N)=S)c1ccc(NC(=O)CN2CCCC2)cc1` [24-5-1], for which the IC50 in data set [1] (setting [5]) and in data set [1] (setting [3]) was 35.6 µM in each case.
For `CC(=NNC(N)=S)c1ccc(NC(=O)CN2CCCCC2)cc1` [24-6-1], the IC50 in data set [1] (setting [5]) and in data set [1] (setting [3]) was 1550 µM throughout.
For `CC(=NNC(N)=S)c1ccc(NC(=O)CN2CCCCCC2)cc1` [24-7-1], the IC50 in data set [1] (setting [4]) and in data set [1] (setting [3]) was 44.1 µM each time.
On to `CC(=NNC(N)=S)c1ccc(NC(=O)CN2CCOCC2)cc1` [24-8-1, 4-[(morpholine-4-yl)acetamido]acetophenone thiosemicarbazone], for which the IC50 in data set [1] (setting [3]) was 6.79 µM.
In the case of `CC(=NNC(N)=O)c1ccc(NC(=O)CN2CCCCC2)cc1` [34-6-1, 4-[2-(piperidine-1-yl)acetamido]acetophenone semicarbazone], the IC50 is 18.4 µM in data set [1] (setting [4]); 18.4 µM in data set [1] (setting [3]); over 100 µM in the data set on MCF-7 cells (Homo sapiens, MCF7, MCF-7, 48 h incubation); over 100 µM in the data set with THP-1 cells (Homo sapiens, THP-1, 48 h incubation); over 100 µM in the data set on DU-145 cells (Homo sapiens, DU-145, 48 h incubation). Also, the Proliferation of control in the data set with MCF-7 cells (MCF-7, 1 μmol/l) is reported as 100.09%; in the data set on MCF-7 cells (MCF-7, 5 μmol/l), 96.80%; with MCF-7 cells (MCF-7, 10 μmol/l), 97.62%; in the data set on MCF-7 cells (MCF-7, 30 μmol/l) it was 96.30%; in the data set with MCF-7 cells (MCF-7, 50 μmol/l), 99.57%; in the data set on MCF-7 cells (MCF-7, 75 μmol/l) it was 85.41%. The Proliferation of control with MCF-7 cells (MCF-7, 100 μmol/l) is 81.17%; with THP-1 cells (THP-1, 1 μmol/l), 97.78%; in the data set with THP-1 cells (THP-1, 5 μmol/l), 97.58%; with THP-1 cells (THP-1, 10 μmol/l), 93.87%; with THP-1 cells (THP-1, 30 μmol/l), 86.64%; in the data set on THP-1 cells (THP-1, 50 μmol/l) it was 73.78%. Also, the Proliferation of control in the data set with THP-1 cells (THP-1, 75 μmol/l) turned out to be 71.38%; with THP-1 cells (THP-1, 100 μmol/l), 69.17%; with DU-145 cells (DU-145, 1 μmol/l), 98.33%; with DU-145 cells (DU-145, 5 μmol/l), 98.26%; in the data set on DU-145 cells (DU-145, 10 μmol/l) it was 97.24%; with DU-145 cells (DU-145, 30 μmol/l), 97.25%. The Proliferation of control with DU-145 cells (DU-145, 50 μmol/l) was determined as 96.59%; in the data set on DU-145 cells (DU-145, 75 μmol/l) it was 99.61%; in the data set with DU-145 cells (DU-145, 100 μmol/l), 99.25%. Also, the “antiproliferative effect (in words)” value with DU-145 cells (DU-145, no APN expression) is given as “did not affect proliferation at all”.
For the compound `CC(=NNC(N)=O)c1ccc(NC(=O)CN2CCOCC2)cc1` [34-8-1], the melting point (usually the temperature, or range, at which the solid turns liquid) was 231.1 to 231.8 °C. Moreover, the IC50 in data set [1] (setting [4]) was determined as 1640 µM. The IC50 in data set [1] (setting [3]) is 1640 µM.
